Results from patent US11358957B2, “Microbiocidal oxadiazole derivatives” (SYNGENTA PARTICIPATIONS AG, priority 2017, dated 2022).

What was measured:
[1] = tested on: Puccinia recondita f. Sp. Tritici; assay: Fungicidal activity against Puccinia recondita f. sp. tritici / wheat / leaf disc curative (brown rust); type: in vivo; settings: foliar, 24 h, 200 ppm in the applied formulation, wheat leaf segments cv. Kanzler, curative (applied 1 day after inoculation), compared to untreated, read-out: disease control
Protocol: Leaf disks or leaf segments of various plant species are cut from plants grown in a greenhouse. The cut leaf disks or segments are placed in multiwell plates (24-well format) onto water agar. The leaf disks are sprayed with a test solution before (preventative) or after (curative) inoculation. Compounds to be tested are prepared as DMSO solutions (max. 10 mg/mL) which are diluted to the appropriate concentration with 0.025% Tween20 just before spraying. The inoculated leaf disks or segments are incubated under defined conditions (temperature, relative humidity, light, etc.) according to the respective test system. A single evaluation of disease level is carried out 3 to 14 days after inoculation, depending on the pathosystem. Percent disease control relative to the untreated check leaf disks or segments is then calculated. Wheat leaf segments cv. Kanzler are placed on agar in multiwell plates (24-well format). The leaf segments are then inoculated with a spore suspension of the fungus. Plates were stored in darkness at 19C and 75% relative humidity. The formulated test compound diluted in water was applied 1 day after inoculation. The leaf segments were incubated at 19° C. and 75% relative humidity under a light regime of 12 hours light/12 hours darkness in a climate cabinet and the activity of a compound was assessed as percent disease control compared to untreated when an appropriate level of disease damage appears in untreated check leaf segments (6 to 8 days after application). The following compounds at 200 ppm in the applied formulation give at least 80% disease control in this test when compared to untreated control leaf disks under the same conditions, which show extensive disease development.

[2] = tested on: Glomerella lagenarium (Colletotrichum lagenarium); assay: Fungicidal activity against Glomerella lagenarium (Colletotrichum lagenarium) liquid culture / cucumber / preventative (anthracnose); type: cell-based; settings: Colletotrichum orbiculare; 20 ppm in the applied formulation; liquid culture (PDB), inhibition of growth measured photometrically 3 to 4 days after application; compared to untreated; read-out: disease control
Protocol: Mycelia fragments or conidia suspensions of a fungus prepared either freshly from liquid cultures of the fungus or from cryogenic storage, are directly mixed into nutrient broth. DMSO solutions of the test compound (max. 10 mg/mL) are diluted with 0.025% Tween20 by a factor of 50 and 10 μL of this solution is pipetted into a microtiter plate (96-well format). The nutrient broth containing the fungal spores/mycelia fragments is then added to give an end concentration of the tested compound. The test plates are incubated in the dark at 24° C. and 96% relative humidity. The inhibition of fungal growth is determined photometrically after 2 to 7 days, depending on the pathosystem, and percent antifungal activity relative to the untreated check is calculated. Conidia of the fungus from cryogenic storage are directly mixed into nutrient broth (PDB—potato dextrose broth). After placing a (DMSO) solution of test compound into a microtiter plate (96-well format), the nutrient broth containing the fungal spores is added. The test plates are incubated at 24° C. and the inhibition of growth is measured photometrically 3 to 4 days after application. The following compounds at 20 ppm in the applied formulation give at least 80% disease control in this test when compared to untreated control under the same conditions, which show extensive disease development.

[3] = tested on: Puccinia recondita f. Sp. Tritici; assay: Fungicidal activity against Puccinia recondita f. sp. tritici / wheat / leaf disc preventative (brown rust); type: in vivo; settings: foliar, 200 ppm in the applied formulation, wheat leaf segments cv. Kanzler, preventative (inoculated 1 day after application), compared to untreated, read-out: disease control
Protocol: Leaf disks or leaf segments of various plant species are cut from plants grown in a greenhouse. The cut leaf disks or segments are placed in multiwell plates (24-well format) onto water agar. The leaf disks are sprayed with a test solution before (preventative) or after (curative) inoculation. Compounds to be tested are prepared as DMSO solutions (max. 10 mg/mL) which are diluted to the appropriate concentration with 0.025% Tween20 just before spraying. The inoculated leaf disks or segments are incubated under defined conditions (temperature, relative humidity, light, etc.) according to the respective test system. A single evaluation of disease level is carried out 3 to 14 days after inoculation, depending on the pathosystem. Percent disease control relative to the untreated check leaf disks or segments is then calculated. Wheat leaf segments cv. Kanzler were placed on agar in multiwell plates (24-well format) and sprayed with the formulated test compound diluted in water. The leaf disks were inoculated with a spore suspension of the fungus 1 day after application. The inoculated leaf segments were incubated at 19° C. and 75% relative humidity (rh) under a light regime of 12 hours light/12 hours darkness in a climate cabinet and the activity of a compound was assessed as percent disease control compared to untreated when an appropriate level of disease damage appears in untreated check leaf segments (7 to 9 days after application). The following compounds at 200 ppm in the applied formulation give at least 80% disease control in this test when compared to untreated control leaf disks under the same conditions, which show extensive disease development.

| Compound | pest or weed control at 200 ppm [1] | inhibition of growth at 20 ppm [2] | pest or weed control at 200 ppm [3] |
| --- | --- | --- | --- |
| FC(F)(F)c1nc(-c2ccc(Cn3cncn3)s2)no1 [Compound 1.2, 3-[5-(1,2,4-triazol-1-ylmethyl)-2-thienyl]-5-(trifluoromethyl)-1,2,4-oxadiazole] | ≥ 80% | ≥ 80% | ≥ 80% |
| FC(F)(F)c1nc(-c2ccc(Cn3ccc4cccnc43)s2)no1 [Compound 1.8, 3-[5-(pyrrolo[2,3-b]pyridin-1-ylmethyl)-2-thienyl]-5-(trifluoromethyl)-1,2,4-oxadiazole] | ≥ 80% | ≥ 80% | ≥ 80% |
| O=[N+]([O-])c1cnn(Cc2ccc(-c3noc(C(F)(F)F)n3)s2)c1 [Compound 1.9, 3-[5-[(4-nitropyrazol-1-yl)methyl]-2-thienyl]-5-(trifluoromethyl)-1,2,4-oxadiazole] | ≥ 80% | ≥ 80% | ≥ 80% |
| N#Cc1cnn(Cc2ccc(-c3noc(C(F)(F)F)n3)s2)c1 [Compound 1.11, 1-[[5-[5-(trifluoromethyl)-1,2,4-oxadiazol-3-yl]-2-thienyl]methyl]pyrazole-4-carbonitrile] | ≥ 80% | ≥ 80% | ≥ 80% |
| Cc1cc(N)n(Cc2ccc(-c3noc(C(F)(F)F)n3)s2)n1 [Compound 1.16, 5-methyl-2-[[5-[5-(trifluoromethyl)-1,2,4-oxadiazol-3-yl]-2-thienyl]methyl]pyrazol-3-amine] | ≥ 80% | ≥ 80% | ≥ 80% |
| O=Cc1cnn(Cc2ccc(-c3noc(C(F)(F)F)n3)s2)c1 [Compound 1.22, 1-[[5-[5-(trifluoromethyl)-1,2,4-oxadiazol-3-yl]-2-thienyl]methyl]pyrazole-4-carbaldehyde] | ≥ 80% | ≥ 80% | ≥ 80% |
| CC(c1ccc(-c2noc(C(F)(F)F)n2)s1)n1cc(C(=O)NCC(C)(C)C)cn1 (centres unmarked) [Compound 1.66, N-(2,2-dimethylpropyl)-1-[1-[5-[5-(trifluoromethyl)-1,2,4-oxadiazol-3-yl]-2-thienyl]ethyl]pyrazole-4-carboxamide] | ≥ 80% | ≥ 80% | ≥ 80% |
| CON(C)C(=O)c1cnn(C(C)c2ccc(-c3noc(C(F)(F)F)n3)s2)c1 (centres unmarked) [Compound 1.68, N-methoxy-N-methyl-1-[1-[5-[5-(trifluoromethyl)-1,2,4-oxadiazol-3-yl]-2-thienyl]ethyl]pyrazole-4-carboxamide] | ≥ 80% | ≥ 80% | ≥ 80% |
| CNC(=O)c1cnn(C(C)c2ccc(-c3noc(C(F)(F)F)n3)s2)c1 (centres unmarked) [Compound 1.70, N-methyl-1-[1-[5-[5-(trifluoromethyl)-1,2,4-oxadiazol-3-yl]-2-thienyl]ethyl]pyrazole-4-carboxamide] | ≥ 80% | ≥ 80% | ≥ 80% |
| C=CCNC(=O)c1cnn(C(C)c2ccc(-c3noc(C(F)(F)F)n3)s2)c1 (centres unmarked) [Compound 1.73, N-allyl-1-[1-[5-[5-(trifluoromethyl)-1,2,4-oxadiazol-3-yl]-2-thienyl]ethyl]pyrazole-4-carboxamide] | ≥ 80% | ≥ 80% | ≥ 80% |
| CC(c1ccc(-c2noc(C(F)(F)F)n2)s1)n1cc(C(=O)NC2CCC2)cn1 (centres unmarked) [Compound 1.79, N-cyclobutyl-1-[1-[5-[5-(trifluoromethyl)-1,2,4-oxadiazol-3-yl]-2-thienyl]ethyl]pyrazole-4-carboxamide] | ≥ 80% | ≥ 80% | ≥ 80% |
| CONC(=O)c1cnn(C(C)c2ccc(-c3noc(C(F)(F)F)n3)s2)c1 (centres unmarked) [Compound 1.82, N-methoxy-1-[1-[5-[5-(trifluoromethyl)-1,2,4-oxadiazol-3-yl]-2-thienyl]ethyl]pyrazole-4-carboxamide] | ≥ 80% | ≥ 80% | ≥ 80% |
| CC(c1ccc(-c2noc(C(F)(F)F)n2)s1)n1cc(C(=O)NC2CCCC2)cn1 (centres unmarked) [Compound 1.83, N-cyclopentyl-1-[1-[5-[5-(trifluoromethyl)-1,2,4-oxadiazol-3-yl]-2-thienyl]ethyl]pyrazole-4-carboxamide] | ≥ 80% | – | ≥ 80% |
| CC(c1ccc(-c2noc(C(F)(F)F)n2)s1)n1cc(C(=O)NCc2ccco2)cn1 (centres unmarked) [Compound 1.85, N-(2-furylmethyl)-1-[1-[5-[5-(trifluoromethyl)-1,2,4-oxadiazol-3-yl]-2-thienyl]ethyl]pyrazole-4-carboxamide] | ≥ 80% | ≥ 80% | ≥ 80% |
| CCN(C)C(=O)c1cnn(C(C)c2ccc(-c3noc(C(F)(F)F)n3)s2)c1 (centres unmarked) [Compound 1.88, N-ethyl-N-methyl-1-[1-[5-[5-(trifluoromethyl)-1,2,4-oxadiazol-3-yl]-2-thienyl]ethyl]pyrazole-4-carboxamide] | ≥ 80% | ≥ 80% | ≥ 80% |
| O=C(NC1CCC1)c1ncn(Cc2ccc(-c3noc(C(F)(F)F)n3)s2)n1 [Compound 1.91, N-cyclobutyl-1-[[5-[5-(trifluoromethyl)-1,2,4-oxadiazol-3-yl]-2-thienyl]methyl]-1,2,4-triazole-3-carboxamide] | ≥ 80% | ≥ 80% | ≥ 80% |
| O=C(NC1CCCC1)c1ncn(Cc2ccc(-c3noc(C(F)(F)F)n3)s2)n1 [Compound 1.94, N-cyclopentyl-1-[[5-[5-(trifluoromethyl)-1,2,4-oxadiazol-3-yl]-2-thienyl]methyl]-1,2,4-triazole-3-carboxamide] | ≥ 80% | ≥ 80% | ≥ 80% |
| CCN(CC)C(=O)c1cnn(Cc2ccc(-c3noc(C(F)(F)F)n3)s2)c1 [Compound 1.113, N,N-diethyl-1-[[5-[5-(trifluoromethyl)-1,2,4-oxadiazol-3-yl]-2-thienyl]methyl]pyrazole-4-carboxamide] | ≥ 80% | – | ≥ 80% |
| CNC(=O)c1nccn1Cc1ccc(-c2noc(C(F)(F)F)n2)s1 [Compound 1.176, N-methyl-1-[[5-[5-(trifluoromethyl)-1,2,4-oxadiazol-3-yl]-2-thienyl]methyl]imidazole-2-carboxamide] | ≥ 80% | – | ≥ 80% |
| O=C(NC1CC1)c1nccn1Cc1ccc(-c2noc(C(F)(F)F)n2)s1 [Compound 1.177, N-cyclopropyl-1-[[5-[5-(trifluoromethyl)-1,2,4-oxadiazol-3-yl]-2-thienyl]methyl]imidazole-2-carboxamide] | ≥ 80% | – | ≥ 80% |
